≈ marks a conversion by molar mass, not a printed value.
Legend:
[1] = system: Micrococcus luteus; test: Antibacterial activity against Micrococcus luteus; format: functional
[2] = system: KB; test: Cytotoxicity against human KB cells; format: functional, cell-based
[3] = system: L1210; test: Cytotoxicity against mouse L1210 cells; format: functional, cell-based

Row | MIC [1] | Compound | IC50 [2] | IC50 [3]
1 | 12.6 µg/mL (≈ 19.8 µM) | COc1ccc(C[C@H](N)C(=O)NCCc2cc(Br)c(OCCCN(C)C)c(Br)c2)cc1Br [SUBEREDAMINE A] | 9 µg/mL (≈ 14.1 µM) | 8 µg/mL (≈ 12.6 µM)
2 | 12.6 µg/mL (≈ 19.4 µM) | CN[C@@H](Cc1ccc(OC)c(Br)c1)C(=O)NCCc1cc(Br)c(OCCCN(C)C)c(Br)c1 [SUBEREDAMINE B] | > 10 µg/mL | 8.6 µg/mL (≈ 13.2 µM)
